Tested on: ENA polypeptide antibodies (anti-Sm, anti-Rib, anti-ssA, anti-ssB)
Assay: Serologic detection of ENA polypeptide antibodies by immunoblotting in serum of UV + LPS lupus model mice
Type: in vivo, BALB/c mice
Design: key to Anti-Rib: (+): positive; (−): negative; key to Anti-Sm / Anti-ssA / Anti-ssB: (+): positive; (−): negative; (++++): intenseintensity; (+++): stronger fluorescent intensity
Conditions: for Anti-Rib / Anti-Sm / Anti-ssA / Anti-ssB: intragastric; for ENA polypeptide antibodies found positive (FIG. 1): treated 14 days
Method: The back of mice was shaved and acutely exposed to Ultraviolet of 2 h/d*3 d, with a distance of 30 cm. After exposure to UV, 2.5 mg/kg of LPS was administrated once by ip, and after 24 h, the model was successfully established; the mice in the normal control group received normal saline via ip. 24 h after injection of LPS (ip), medicines were given to the model mice by intragastric administration. Chlorogenic acid test groups received high, middle, and low doses of medicines, by intragastric administration at a respective dosage of 10 mg/kg*d, 20 mg/kg*d, and 40 mg/kg*d. The positive control group A received 2 mg/kg*d of artesunate by stomach perfusion, while the positive control group B received 1 mg/kg*d of prednisone by stomach perfusion. Mice in the model and normal control group all received 0.4 ml/mouse normal saline by gavage. After 15 days of administration, animals in each group were taken blood by separating eyeballs on days 14, 21, 28, and after cultured in water bath at 37° C. for 1 h, the blood sample was centrifugated at 2000 r/min for 5 min, to draw serum for use. On day 21, after blood collection, animals were sacrificed by dislocation, followed by collection of liver and kidney, and they were placed in fixative solutions of electron microscope and light microscrope, respectively. Serum of mice was diluted at 1:100 with special buffer solution of Shenzhen Hengjia, and then 200 μL of diluted serum was respectively added to the reactive tank with corresponding number, cultured in the incubator at 37° C. for 30 min, and washed with the buffer solution four times, 2 min for each time; 200 μL of diluted biotin goat anti-mouse IgG (1:100) was added, cultured in the incubator at 37° C. for 30 min, and then washed with the buffer solution four times, 2 min for each time; 100 μL of diluted HRP-avidin (1:100) was added, cultured in the incubator at 37° C. for 30 min, and then washed as mentioned-above; reactive solutions A and B were added till appearance of positive bands, then washed with the buffer solution. Compared with the standard bands of ENA polypeptide antibody spectrum in the same kit, if the positive bands appeared at 28/29,13.5 ku polypeptide; 15,16.5,38 kupolypeptide; 52 kupolypeptide and 47/48,45 kupolypeptide, that can be determined as anti-Sm, anti-Rib, anti-ssA, and anti-ssB positive antibody. Serum was diluted with PBS at 1:40, then 20-30 μL of diluted serum was dropped into the scrobiculus of HEp-2 cell sheets, each cell sheet for each group. In the process of dropping serum, it should be noted that the surface of cell sheet can not be touched. After addition of serum, cell sheet was placed in wet box and kept for 30 min at room temperature (25° C.). After 30 min, the cell sheet was taken out, and serum was carefully washed out with PBS, then carefully washed twice with PBS, 5 min for each time; after washing, the remained PBS was removed by special absorbent paper of […] company (In this process, it should be noted that becoming dry of cell substrates will affect the results). 20-30 μL of diluted (PBS, 1:100) FITC goat anti-mouse IgG was added by dropping, and then incubated in wet box at room temperature for 30 min. After washing with PBS, steps were same to above. The remained PBS was removed by absorbent paper, and 1-2 drops of fluorescent mounting media were added to the cell sheet. The cover glass was mounted, observed under Olympus BH-2 universal microscope, and then photographed.

[1] = day 14, chlorogenic acid high dose
[2] = day 14, chlorogenic acid low dose
[3] = day 14, chlorogenic acid middle dose
[4] = day 21, chlorogenic acid high dose
[5] = day 21, chlorogenic acid low dose
[6] = day 21, chlorogenic acid middle dose
[7] = day 28, chlorogenic acid high dose
[8] = day 28, chlorogenic acid low dose
[9] = day 28, chlorogenic acid middle dose

In the case of `O=C(/C=C/c1ccc(O)c(O)c1)O[C@@H]1C[C@](O)(C(=O)O)C[C@@H](O)[C@H]1O` [Chlorogenic acid, 3-O-caffeoylquinic acid], the Anti-Rib [1] is reported as “(+)”, the Anti-Sm [1] is reported as “(+)” and the Anti-ssA [1] is reported as “(+)”. For the same compound, the Anti-ssB [1] was “(+)”, the Anti-Rib [2] was “(+)” and the Anti-Sm [2] was “(+)”. The Anti-ssA [2] was “(+)”, the Anti-ssB [2] was “(+)” and the Anti-Rib [3] was “(+)”. For the same compound, the Anti-Sm [3] was “(+)”, the Anti-ssA [3] was “(+)” and the Anti-ssB [3] was “(+)”. The Anti-Rib [4] was “(+)”, the Anti-Sm [4] was “(+)” and the Anti-ssA [4] was “(+)”. The Anti-ssB [4] was “(+)”, the Anti-Rib [5] was “(+)” and the Anti-Sm [5] was “(+)”. The Anti-ssA [5] was “(+)”, the Anti-ssB [5] was “(+)” and the Anti-Rib [6] was “(+)”. For the same compound, the Anti-Sm [6] was “(+)”, the Anti-ssA [6] was “(+)” and the Anti-ssB [6] was “(+)”. The Anti-Rib [7] was “(−)”, the Anti-Sm [7] was “(+)” and the Anti-ssA [7] was “(−)”. The Anti-ssB [7] was “(−)”, the Anti-Rib [8] was “(+)” and the Anti-Sm [8] was “(+)”. The Anti-ssA [8] was “(+)”, the Anti-ssB [8] was “(+)” and the Anti-Rib [9] was “(−)”. The Anti-Sm [9] was “(+)”, the Anti-ssA [9] was “(+)” and the Anti-ssB [9] was “(+)”. For the same compound, the “ENA polypeptide antibodies found positive (FIG. 1)” value (high dose of chlorogenic acid) was “anti-Sm, anti-ssA and anti-ssB bodies are positive”, the “ENA polypeptide antibodies found positive (FIG. 1)” value (low dose of chlorogenic acid) was “anti-Sm, anti-ssA and anti-ssB bodies are positive” and the “ENA polypeptide antibodies found positive (FIG. 1)” value (middle dose of chlorogenic acid) was “anti-Sm, anti-Rib, anti-ssA and anti-ssB bodies are positive”.
